Results as given in patent EP4177246A1, “FUSED OXAZEPINES AS INHIBITORS OF PEROXIREDOXINS” (Centro Atlántico del Medicamento, SA, priority 2021, dated 2023).

Tests used:
K562 = test: MTT cell viability assay, K562 cells; type: cell-based; settings: Homo sapiens, 48 h drug exposure
Method: K562 [American Type Culture Collection (ATCC) reference number CCL-243]. This a human cancer cell line derived from the bone marrow of a person with CML.
(§1) Cell viability was assayed by measuring the mitochondrial reduction of the tetrazolium salt 3-(4,5-methyltiazol-2yl)-2,5diphenyl-tetrazolium bromide] (MTT) (Applichen; A2231,0010) [Mosmann T. J Immunol Methods. 1983 16;65(1-2):55-63 (ref. 36); Chuan Y-C et al 2010. Oncogene. 29 (10), 1531-1542 (ref. 37)]. Cells were seeded in 96-well plates in medium (either RPMI, DMEM or McCoys depending on the recommendations from the ATCC) supplemented with 10% FBS (Lonza Cat. N°: 14-502F), 2mM L-Glut (Lonza Cat. N°: BE17-605E) and 100U/ml PEST (Lonza Cat. N°: DE17-605E) at a cell density of 1000-5000 cells/well (96 well plate). Cells were seeded at a density according to their exponential growth phase (normally 1000 to 5000/well). The cells were cultured at 37 °C in the dark in air containing 5% CO2. After 24h either vehicle (0.05% DMSO) or drug were added to culture medium at the indicated concentrations (10 to 0,01microM). After another 48 h, MTT (0.3 mg/ml) was added to cells, followed by incubation for 2-4h at 37 °C in the dark. The medium was then removed and the precipitated formazan was solubilized by the addition of DMSO (200 µL).
(§2) The optical density was measured at 595 nm with the iMark Microplate Reader (BioRad, USA). Data was expressed as percent growth above the level in controls and the results in figures were plotted as means ± SEM of each test point from 3 replicates.
(§3) Statistical analysis. The concentration of drug that provokes 50% reduction of cell viability (IC50) was determined by using non-linear regression analysis and data were fitted to a log concentration vs normalized response curve in GraphPad software v5 (San Diego, CA).

HEL 92.1.7 = test: MTT cell viability assay, HEL cells; type: cell-based; settings: Homo sapiens, 48 h drug exposure
Method: HEL 92.1.7 [American Type Culture Collection (ATCC) reference number TIB-180]. This a human cancer cell line derived from the bone marrow of a person with erythroleukemia, which is a form of AML.
as §1, §2, §3

MDA-MB-231 = test: MTT cell viability assay, MDA-MB-231 cells; type: cell-based, human; settings: Homo sapiens, 48 h drug exposure
Method: MDA-MB-231 [American Type Culture Collection (ATCC) reference number HTB-26]. This a human breast cancer cell line derived from a metastatic site from a person.
as §1, §2, §3

PANC-1 = test: MTT cell viability assay, PANC-1 cells; type: cell-based; settings: Homo sapiens, 48 h drug exposure
Method: PANC-1 [American Type Culture Collection (ATCC) reference number CRL-1469]. This a human cancer cell line derived from the pancreas of a person.
as §1, §2, §3

MCF-7 = test: MTT cell viability assay, MCF-7 cells; type: cell-based; settings: Homo sapiens, MCF7, 48 h drug exposure
Method: as §1, §2, §3

DU-145 = test: MTT cell viability assay, DU-145 cells; type: cell-based; settings: Homo sapiens, 48 h drug exposure
Method: DU-145 [American Type Culture Collection (ATCC) reference number HTB-81]. This a human prostate cancer cell line derived from a metastatic site (brain) of a person.
as §1, §2, §3

Row | SMILES | IC50 (K562) [µM] | IC50 (HEL 92.1.7) [µM] | IC50 (MDA-MB-231) [µM] | IC50 (PANC-1) [µM] | IC50 (MCF-7) [µM] | IC50 (DU-145) [µM]
1 | N#Cc1ccc(N2Cc3ccccc3OC3=C2C(=O)c2c(O)ccc(O)c2C3=O)cc1 [Compound 8, 4-(7,10-dihydroxy-6,11-dioxobenzo[f]naphtho[2,3-b][1,4]oxazepin-12(6H,11H,13H)-yl)benzonitrile] | 0.23 | 0.1 | 0.36 | 0.32 | 2.59 | 6.04
2 | N#Cc1ccc(N2Cc3ccccc3OC3=C2C(=O)c2ccccc2C3=O)cc1 [Compound 2, 4-(6,11-dioxo-6,11-dihydrobenzo[f]naphtho[2,3-b][1,4]oxazepin-12(13H)-yl)benzonitrile] | 0.57 | 0.35 | 4.02 | 5.6 | 4.22 | > 10
3 | CN1CCN(c2ccc(N3Cc4ccccc4OC4=C3C(=O)c3c(O)ccc(O)c3C4=O)cn2)CC1 [Compound 81, 7,10-dihydroxy-12-(6-(4-methylpiperazin-1-yl)pyridin-3-yl)-12,13-dihydrobenzo[f]naphtho[2,3-b][1,4]oxazepine-6,11-dione] | 0.02 | 0.05 | 0.32 | 0.26 | 0.91 | 0.82
4 | CN(C)c1ccc(N2Cc3ccccc3OC3=C2C(=O)c2c(O)ccc(O)c2C3=O)cn1 [Compound 62, 12-(6-(dimethylamino)pyridin-3-yl)-7,10-dihydroxy-12,13-dihydrobenzo[f]naphtho[2,3-b][1,4]oxazepine-6,11-dione] | 0.1 | 0.07 | 0.27 | 1.55 | 3 | 1.32
5 | NS(=O)(=O)c1ccc(N2Cc3ccccc3OC3=C2C(=O)c2c(O)ccc(O)c2C3=O)cc1 [Compound 40, 4-(7,10-dihydroxy-6,11-dioxo-6,11-dihydrobenzo[f]naphtho[2,3-b][1,4]oxazepin-12(13H)-yl)benzenesulfonamide] | 0.59 | 0.21 | 1.96 | 0.63 | 2.52 | 6.13
6 | NC(=O)c1cccc(N2Cc3ccccc3OC3=C2C(=O)c2c(O)ccc(O)c2C3=O)c1 [Compound 54, 3-(7,10-dihydroxy-6,11-dioxo-6,11-dihydrobenzo[f]naphtho[2,3-b][1,4]oxazepin-12(13H)-yl)benzamide] | 0.07 | 0.09 | 0.19 | 0.38 | 1.28 | 3.41
7 | O=C1C2=C(C(=O)c3c(O)ccc(O)c31)N(c1ccc(N3CCOCC3)nc1)Cc1ccccc1O2 [Compound 59] | 0.05 | 0.06 | 0.21 | 0.28 | 0.72 | 0.54
